These results are taken from patent US7939672B2, “Phenylacetate derivatives or pharmaceutically acceptable salts thereof, preparation method thereof and composition for prevention or treatment of diseases induced by activation of T-type calcium ion channel containing the same as an active ingredient” (Korea Institute of Science and Technology, priority 2008, dated 2011).

Read-outs that look alike come from different tables or passages of the source.

Assay [1] has as its system spinal nerve ligation animal model. The conditions noted are these: Barton et al. 2005; cited from earlier work.
Assay [2] concerns T-type calcium ion channel. The conditions noted are these: T-type versus L-type; cited from earlier work.
For assay [3], the target named is T1, α1G T-type calcium ion channels (Homo sapiens, UniProt O43497).
T1 construct: host or cells: HEK293
Nature of the assay: Ion current inhibition on T-type calcium ion channels using a patch clamp (HEK293 cells). In kind it is cell-based. How it is done:
Measurement of Ion Current Inhibition on T-Type Calcium Ion Channels Using a Patch Clamp
(1) Cell Culture and Preparation
20 hours prior to the use of the medium for expression of hERG channels, the Tet-expression system was activated by treating the medium with 1 μg/ml doxycycline.
The cells in the experiment was passaged once in three days, and collected when the cells were grown to 50˜80% confluency in the Petri dish. […] Trypsin was removed using a centrifuge, an extracellular solution was added, and cells floating automatically by a Patchliner were used at room temperature.
(2) Experimental Solution
As a solution composition for measurement of activation of T-type calcium ion channels, 140 mM NaCl, 2 mM CaCl2, 4 mM KCl, 1 mM MgCl2, 5 mM D-glucose, and 10 mM HEPES (pH 7.4) were used for an extracellular solution, and 50 mM KCl, 10 mM NaCl, 60 mM KF, 2 mM MgCl2, 10 mM HEPES, and 20 mM EGTA (pH 7.2) were used for an intracellular solution. To maintain the pre-cellular state, a seal reinforced solution was added. When T-type calcium ion channel expression cells were used, an extracellular solution supplemented with 10 mM Ba^2+ was added and records about the result were made.
(3) Electro-Physiological Technique and Data Processing
The current was measured through an EPC10 amplifier (HEKA, Germany) by a precellular patch clamp technique using NPC©-16 Patchliner (Nanion Technologies, Germany). Cell suspensions and various experimental solutions were automatically aliquotted into chips (NPC-16 Chip, Nanion Technologies, Germany) by experimental devices. A cell membrane potential was fixed at −100 mV for measurement of activation of T-type calcium ion channels. When a low polarization was performed at −20 mV for 300 ms, the inward current was measured at ten-second intervals.
The IC50 graphs and values were obtained from the automatic calculation of inhibition rates of the peak current using an experimental data analysis program IGOR Pro (WaveMetrics, USA).
In general terms: In patch-clamp work, channel activity is measured electrically.

Where [4] appears, read: read-out: % inhibition rate (10 μM), 10 μM, peak inward current, HEK293 cells expressing α1G T-type channel.
The mark [5] stands for this setting: patch clamp, HEK293 α1G cells, 10 nM to 100 μM, read-out: IC50.
Setting [6] is: patch clamp, HEK293 α1G cells, unit nM, read-out: IC50 (μM), cells marked.

T1 sequence (O43497 whole entry): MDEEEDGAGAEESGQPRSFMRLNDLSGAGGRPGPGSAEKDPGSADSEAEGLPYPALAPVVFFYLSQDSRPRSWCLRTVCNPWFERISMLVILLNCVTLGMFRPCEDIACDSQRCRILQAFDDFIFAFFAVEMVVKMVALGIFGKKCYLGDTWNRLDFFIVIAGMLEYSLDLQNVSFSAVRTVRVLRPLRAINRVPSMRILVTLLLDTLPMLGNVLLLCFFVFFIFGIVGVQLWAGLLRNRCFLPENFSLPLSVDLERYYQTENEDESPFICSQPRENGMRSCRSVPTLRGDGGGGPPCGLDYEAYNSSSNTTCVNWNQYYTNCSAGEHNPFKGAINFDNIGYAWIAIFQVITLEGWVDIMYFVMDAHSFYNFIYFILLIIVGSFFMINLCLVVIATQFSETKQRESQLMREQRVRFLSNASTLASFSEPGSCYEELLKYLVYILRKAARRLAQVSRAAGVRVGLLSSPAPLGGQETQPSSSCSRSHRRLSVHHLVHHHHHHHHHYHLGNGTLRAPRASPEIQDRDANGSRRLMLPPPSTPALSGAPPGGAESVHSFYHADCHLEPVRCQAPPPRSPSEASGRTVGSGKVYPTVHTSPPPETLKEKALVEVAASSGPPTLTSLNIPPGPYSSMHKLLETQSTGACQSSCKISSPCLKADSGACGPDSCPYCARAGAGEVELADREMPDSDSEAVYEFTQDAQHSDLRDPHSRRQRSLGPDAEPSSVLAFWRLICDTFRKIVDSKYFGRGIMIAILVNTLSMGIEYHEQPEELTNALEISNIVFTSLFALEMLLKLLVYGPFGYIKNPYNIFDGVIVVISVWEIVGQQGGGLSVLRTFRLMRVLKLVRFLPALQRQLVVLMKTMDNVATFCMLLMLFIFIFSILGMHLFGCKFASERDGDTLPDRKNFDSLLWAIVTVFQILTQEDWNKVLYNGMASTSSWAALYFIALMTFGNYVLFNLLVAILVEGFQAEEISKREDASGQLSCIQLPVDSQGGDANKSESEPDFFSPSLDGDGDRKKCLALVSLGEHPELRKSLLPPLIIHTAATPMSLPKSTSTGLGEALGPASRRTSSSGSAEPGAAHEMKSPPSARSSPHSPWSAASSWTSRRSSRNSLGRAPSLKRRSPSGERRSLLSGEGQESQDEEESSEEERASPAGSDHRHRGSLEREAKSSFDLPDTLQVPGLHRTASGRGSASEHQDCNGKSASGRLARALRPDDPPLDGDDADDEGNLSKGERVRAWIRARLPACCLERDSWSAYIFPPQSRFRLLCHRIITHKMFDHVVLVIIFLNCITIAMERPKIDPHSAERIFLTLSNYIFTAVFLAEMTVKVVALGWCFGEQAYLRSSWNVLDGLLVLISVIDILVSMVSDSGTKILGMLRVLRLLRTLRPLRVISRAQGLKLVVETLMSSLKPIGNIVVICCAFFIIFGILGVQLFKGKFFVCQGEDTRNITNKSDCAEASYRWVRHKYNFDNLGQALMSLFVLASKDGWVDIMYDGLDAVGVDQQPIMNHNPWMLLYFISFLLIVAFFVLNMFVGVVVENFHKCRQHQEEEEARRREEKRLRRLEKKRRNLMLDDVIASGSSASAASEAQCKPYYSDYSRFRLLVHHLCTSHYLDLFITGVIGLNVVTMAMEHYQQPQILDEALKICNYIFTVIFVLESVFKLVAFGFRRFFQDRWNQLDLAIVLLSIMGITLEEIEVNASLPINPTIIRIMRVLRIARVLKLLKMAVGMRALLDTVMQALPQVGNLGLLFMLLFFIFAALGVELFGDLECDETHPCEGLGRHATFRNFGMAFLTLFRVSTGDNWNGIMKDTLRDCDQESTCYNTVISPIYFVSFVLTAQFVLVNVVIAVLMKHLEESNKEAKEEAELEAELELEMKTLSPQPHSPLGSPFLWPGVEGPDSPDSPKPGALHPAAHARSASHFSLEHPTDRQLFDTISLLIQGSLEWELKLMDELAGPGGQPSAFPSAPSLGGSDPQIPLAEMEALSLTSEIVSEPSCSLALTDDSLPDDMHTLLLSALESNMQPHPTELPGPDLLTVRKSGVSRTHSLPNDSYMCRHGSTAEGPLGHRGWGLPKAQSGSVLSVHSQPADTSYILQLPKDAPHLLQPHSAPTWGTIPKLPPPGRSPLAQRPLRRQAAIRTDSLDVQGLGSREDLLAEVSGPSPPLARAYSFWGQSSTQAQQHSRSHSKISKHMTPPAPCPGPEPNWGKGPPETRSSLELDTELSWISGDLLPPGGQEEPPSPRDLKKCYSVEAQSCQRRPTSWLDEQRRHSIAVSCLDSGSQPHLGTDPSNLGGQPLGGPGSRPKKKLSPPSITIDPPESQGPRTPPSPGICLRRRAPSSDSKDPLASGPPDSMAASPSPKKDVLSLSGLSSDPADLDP

A word on the inhibition: it is the share of the control response that was lost under treatment. With `COCC(=O)O[C@]1(CCN(C)CCCc2nc3ccccc3[nH]2)CCc2cc(F)ccc2[C@@H]1C(C)C` [mibefradil], in assay [1], the “reversal of mechanic and thermal induction” value was “dosage-dependent reversed mechanic and thermal induction”. Besides, the “more inhibitory activity to the T-type than to the L-type” value in assay [2] is reported as 10 to 30 times. Besides, in assay [3] (setting [4]), the inhibition at 10 µM amounted to 95.9 ± 1.7%.

For orientation: IC50 means the concentration needed to halve the response being measured. For the compound `COC(=O)C(CCCN(C)CCCc1nc2cc(OC)ccc2[nH]1)(c1ccc(OC)cc1)C(C)C` (centres unmarked) [Embodiment 5], the 50% inhibitory concentration (IC50) in assay [3] (setting [5]) came out at 880 ± 70 nM. Moreover, the inhibition at 10 µM in assay [3] (setting [4]) was 91.7 ± 1.9%.

As to `COC(=O)C(CCCN1CCN(Cc2ccc(F)cc2)CC1)(c1ccc(Br)cc1)C(C)C` (centres unmarked) [Embodiment 32, methyl 2-(4-bromophenyl)-5-(4-(4-fluorobenzyl)piperazine-1-yl)-2-isopropylpentanoate], in assay [3] (setting [5]), the concentration for half-maximal inhibition (IC50) came to 1110 ± 50 nM. Further, the inhibition at 10 µM in assay [3] (setting [4]) was 96.5 ± 1.7%.

Turning to `COC(=O)C(CCCN1CCN(Cc2cccc(C)c2)CC1)(c1ccc(Br)cc1)C(C)C` (centres unmarked) [Embodiment 40, methyl 2-(4-bromophenyl)-2-isopropyl-5-(4-(3-methylbenzyl)piperazine-1-yl)pentanoate], the concentration for half-maximal inhibition (IC50) in assay [3] (setting [5]) is 390 ± 30 nM. Also, the inhibition at 10 µM in assay [3] (setting [4]) is 94.9 ± 1.5%.

For `CCOC(=O)C(CCCN(C)CCCc1nc2ccccc2[nH]1)(c1ccccc1)C(C)C` (centres unmarked) [Embodiment 10], in assay [3] (setting [5]), the IC50 turned out to be 250 ± 5 nM. In assay [3] (setting [4]), the inhibition at 10 µM is 98.3 ± 0.9%.

Consider `COC(=O)C(CCCN(C)CCCc1nc2cc(C)c(C)cc2[nH]1)(c1ccc(Br)cc1)C(C)C` (centres unmarked) [Embodiment 12], for which, in assay [3] (setting [6]), the concentration for half-maximal inhibition (IC50) stood at 53 ± 4.87 nM. Also, the inhibition at 10 µM in assay [3] (setting [4]) is 94.2 ± 0.4%.

For `CCOC(=O)C(CCCN1CCN(Cc2ccc(F)cc2)CC1)(c1ccccc1)C(C)C` (centres unmarked) [Embodiment 26, ethyl 5-(4-(4-fluorobenzyl)piperazine-1-yl)-2-isopropyl-2-phenylpentanoate], the half-inhibitory concentration (IC50) in assay [3] (setting [5]) was found to be 260 ± 30 nM. Besides, the inhibition at 10 µM in assay [3] (setting [4]) turned out to be 94 ± 2.5%.

`COC(=O)C(CCCN1CCN(Cc2ccccc2F)CC1)(c1ccc(Br)cc1)C(C)C` (centres unmarked) [Embodiment 30, methyl 2-(4-bromophenyl)-5-(4-(2-fluorobenzyl)piperazine-1-yl)-2-isopropylpentanoate]: in assay [3] (setting [5]), the IC50 was 740 ± 20 nM. Moreover, the inhibition at 10 µM in assay [3] (setting [4]) worked out at 90.4 ± 3.2%.

Regarding `CCOC(=O)C(CCCN1CCN(Cc2ccc(OC)cc2)CC1)(c1ccccc1)C(C)C` (centres unmarked) [Embodiment 23, ethyl 2-isopropyl-5-(4-(4-methoxybenzyl)piperazine-1-yl)-2-phenylpentanoate], in assay [3] (setting [5]), the half-inhibitory concentration (IC50) stood at 340 ± 20 nM. In addition, in assay [3] (setting [4]), the inhibition at 10 µM is 96.3 ± 1.7%.

`COC(=O)C(CCCN1CCN(Cc2cccc(F)c2)CC1)(c1ccc(Br)cc1)C(C)C` (centres unmarked) [Embodiment 31, methyl 2-(4-bromophenyl)-5-(4-(3-fluorobenzyl)piperazine-1-yl)-2-isopropylpentanoate]: the half-maximal inhibitory concentration (IC50) in assay [3] (setting [5]) worked out at 980 ± 110 nM. For the same compound, the inhibition at 10 µM in assay [3] (setting [4]) is 89.3 ± 1.6%.

On to `COC(=O)C(CCCN(C)CCCc1nc2ccccc2[nH]1)(c1ccc(OC)cc1)C(C)C` (centres unmarked) [Embodiment 4], for which the IC50 in assay [3] (setting [5]) was determined as 190 ± 1 nM. The inhibition at 10 µM in assay [3] (setting [4]) is 93.5 ± 3.2%.

On to `CCOC(=O)C(CCCN(C)CCCc1nc2cc(C)c(C)cc2[nH]1)(c1ccccc1)C(C)C` (centres unmarked) [Embodiment 11], for which, in assay [3] (setting [5]), the concentration for half-maximal inhibition (IC50) came out at 100 ± 10 nM. Moreover, in assay [3] (setting [4]), the inhibition at 10 µM came to 91.4 ± 0.4%.

On to `COC(=O)C(CCCN1CCN(c2ccccc2OC)CC1)(c1ccc(Br)cc1)C(C)C` (centres unmarked) [Embodiment 35, methyl 2-(4-bromophenyl)-2-isopropyl-5-(4-(2-methoxyphenyl)piperazine-1-yl)pentanoate], for which the IC50 in assay [3] (setting [6]) came to 95 ± 14.8 nM. Also, the inhibition at 10 µM in assay [3] (setting [4]) worked out at 94.1 ± 1.5%.

Consider `COC(=O)C(CCCN1CCN(Cc2ccc(OC)c(OC)c2OC)CC1)(c1ccc(Br)cc1)C(C)C` (centres unmarked) [Embodiment 39, methyl 2-(4-bromophenyl)-2-isopropyl-5-(4-(2,3,4-trimethoxybenzyl)piperazine-1-yl)pentanoate], for which the 50% inhibitory concentration (IC50) in assay [3] (setting [5]) turned out to be 320 ± 10 nM. The inhibition at 10 µM in assay [3] (setting [4]) was found to be 95.1 ± 1.9%.

Take `COC(=O)C(CCCN1CCN(Cc2ccc(C(F)(F)F)cc2)CC1)(c1ccc(Br)cc1)C(C)C` (centres unmarked) [Embodiment 34, methyl 2-(4-bromophenyl)-2-isopropyl-5-(4-(4-(trifluoromethyl)benzyl)piperazine-1-yl)pentanoate]: the IC50 in assay [3] stood at 280 ± 20 nM. In assay [3] (HEK293, read-out: % inhibition rate (10 μM)), the inhibition at 10 µM is 93 ± 1.5%.

For the compound `COC(=O)C(CCCN(C)CCCc1nc2cc(OC)ccc2[nH]1)(c1ccc(Br)cc1)C(C)C` (centres unmarked) [Embodiment 13], the 50% inhibitory concentration (IC50) in assay [3] (setting [5]) was 250 ± 10 nM. Besides, the inhibition at 10 µM in assay [3] (setting [4]) stood at 94.5 ± 1.2%.

With `CCC1(C)CC(=O)NC1=O` (centres unmarked) [Ethosuximide], in assay [1], the “reversal of mechanic and thermal induction” value is “dosage-dependent reversed mechanic and thermal induction”.

`COC(=O)C(CCCN1CCN(Cc2ccc(OC)cc2)CC1)(c1ccc(Br)cc1)C(C)C` (centres unmarked) [Embodiment 38, methyl 2-(4-bromophenyl)-2-isopropyl-5-(4-(4-methoxybenzyl)piperazine-1-yl)pentanoate]: the IC50 in assay [3] (setting [5]) came to 480 ± 80 nM. Moreover, the inhibition at 10 µM in assay [3] (setting [4]) stood at 96 ± 1.7%.

Turning to `COC(=O)C(CCCN(C)CCCc1nc2ccccc2[nH]1)(c1ccc(Br)cc1)C(C)C` (centres unmarked) [Embodiment 1, 5-{[3-(1H-benzimidazole-2-yl)propyl]methylamino}-2-(4-bromophenyl)-2-isopropylpentanoic acid methyl ester], the IC50 in assay [3] (setting [6]) stood at 8.17 ± 0.48 nM. Moreover, the inhibition at 10 µM in assay [3] (setting [4]) came to 96.9 ± 0.59%.
